Results taken from patent publication US20220010352A1, “ANIMAL MODELS AND SCREENING METHODS FOR INTRAOCULAR DISEASE OR DISORDER” (ZHUHAI QlWEl BIO-TECHNOLOGY LTD., priority 2018, published 2022).
“Also recorded” adds a separate entry of the source.

Tests used:
Bacillus megaterium [1] = test: antibiotic sensitivity screening test in petri dishes (minimum inhibitory concentration method); type: cell-based; conditions: MIC method, 10^-1 to 10^-5 mg/mL in medium, FIG. 1
Method: The bacterial culture medium (HuanKai Microbial, Guangzhou, China) containing peptone 5 g, beef extract 3 g, NaCl 5 g, agar 15 g, and MnSO4 5 mg in 1 L ddH2O (pH=7.2) was prepared in conical flask (Drtech, Guangzhou, China) and was sterilized in the autoclave (HIRAYAMA, HEV-50, Japan) at 121° C. for 30 min. Bacillus megaterium (total 1*10^7 per culture) was cultured in the incubator (HettCube 200, Germany) at 37° C. for 24 h.
To test whether antibiotics can control the growth of Bacillus megaterium in vitro and in vivo, we first carried out an antibiotic sensitivity screening test in petri dishes which were made in example 1. The sensitivity of Bacillus megaterium to several major antimicrobial agents including ampicillin, vancomycin, neomycin, metronidazole and tetracycline were examined using the minimum inhibitory concentration (MIC) method. Ampicillin, vancomycin, neomycin, metronidazole, and tetracycline (purchased from Sigma, USA) at various concentrations (10^−1, 10^−2, 10^−3, 10^−4, 10^−5 mg/mL) were added into cooled medium.

Bacillus megaterium [2] = test: Bacillus megaterium subretinal inoculation model, bacteria-induced drusenoid pathology in retinal tissues; type: in vivo, Macaca fascicularis; conditions: intravitreous, 0.5 mg, one injection on Day 2 post bacterial inoculation; macaque; compared to control; FIG. 8
Method: The macaques were sedated by intramuscular injection of a mixture of tiletamine hydrochloride (2.5 mg/kg) and xolazepam hydrochloride (2.5 mg/kg). After instilling topical anesthesia (0.5% proparacaine hydrochloride), the eyes were immediately visualized in vivo using a light microscope. The pupils were then dilated with 0.5% tropicamide and 0.5% phenylephrine to obtain the fundus photographs. […] Under microscopic monitoring, 20 μl of PBS (with or without bacteria) was injected into the subretinal space between photo receptors and RPE (retinal pigment epithelium), using a NanoFil Syringe Nanofil-100 for Microinjection (World Precision Instruments, USA). All procedures were done using sterile instruments. The macaque was euthanized 47 days post inoculation and the eyeball was enucleated for histological analyses. The eyeballs were fixed in 4% paraformaldehyde for 48 h and then embedded in paraffin. Sections were cut on a microtome at 6 μm and stained with H&E.
We examined whether subretinal inoculation of AH and VH cultures, as well as the cultured single species of B. megaterium led to AMD like pathology in macaque. About 20 CFU of bacteria (in 20 μl PBS) from AH, VH, and B. megaterium cultures were injected subretinally and PBS was used as a control (illustrated in FIG. 6). […]

[3] = ocular complications after intraocular administration in monkey; type: in vivo; conditions: data not shown
Excerpt: Next, we used the Bacillus megaterium subretinal inoculation model to test whether antibiotics might be able to change the bacteria-induced drusenoid pathology in monkey retinal tissues.

Cc1ncc([N+](=O)[O-])n1CCO [metronidazole]
effectiveness in controlling the growth of Bacillus megaterium, fold less effective (relative to neomycin) (Bacillus megaterium [1]): 10000 fold

CN[C@H](CC(C)C)C(=O)N[C@H]1C(=O)N[C@@H](CC(N)=O)C(=O)N[C@H]2C(=O)N[C@H]3C(=O)N[C@H](C(=O)N[C@H](C(=O)O)c4cc(O)cc(O)c4-c4cc3ccc4O)[C@H](O)c3ccc(c(Cl)c3)Oc3cc2cc(c3O[C@@H]2O[C@H](CO)[C@@H](O)[C@H](O)[C@H]2O[C@H]2C[C@](C)(N)[C@H](O)[C@H](C)O2)Oc2ccc(cc2Cl)[C@H]1O [vancomycin]
size of drusenoid lesion in retinal tissue (Bacillus megaterium [2]): reduction in the size of drusenoid lesion

neomycin
ocular complications [3]: significant ocular complications including ophthalmatrophia
sensitivity of Bacillus megaterium to antimicrobial agent / in vitro activity controlling the expansion of Bacillus megaterium (Bacillus megaterium [1]; 37° C. 24 h): most sensitive; also recorded: best in vitro activity
